Bridge positions count the residues as written; N and C are the ends. Peptide text beside a SMILES is read from it. * marks the point of attachment. FITC = O=C1OC2(c3ccc(O)cc3Oc3cc(O)ccc32)c2ccc(NC(=S)*)cc21
What was measured:
TβR2 on HDFs = molecular target: T1, TβR2 on HDFs (Homo sapiens, UniProt P37173); assay: PTβR2I binding and competitive binding with TGFβ1 on HDFs (IF anti-TβR2, FITC intensity); format: cell-based; settings: 48 hours
T1 construct: host or cells: human dermal fibroblasts (HDFs)
T1 sequence (P37173 23-567): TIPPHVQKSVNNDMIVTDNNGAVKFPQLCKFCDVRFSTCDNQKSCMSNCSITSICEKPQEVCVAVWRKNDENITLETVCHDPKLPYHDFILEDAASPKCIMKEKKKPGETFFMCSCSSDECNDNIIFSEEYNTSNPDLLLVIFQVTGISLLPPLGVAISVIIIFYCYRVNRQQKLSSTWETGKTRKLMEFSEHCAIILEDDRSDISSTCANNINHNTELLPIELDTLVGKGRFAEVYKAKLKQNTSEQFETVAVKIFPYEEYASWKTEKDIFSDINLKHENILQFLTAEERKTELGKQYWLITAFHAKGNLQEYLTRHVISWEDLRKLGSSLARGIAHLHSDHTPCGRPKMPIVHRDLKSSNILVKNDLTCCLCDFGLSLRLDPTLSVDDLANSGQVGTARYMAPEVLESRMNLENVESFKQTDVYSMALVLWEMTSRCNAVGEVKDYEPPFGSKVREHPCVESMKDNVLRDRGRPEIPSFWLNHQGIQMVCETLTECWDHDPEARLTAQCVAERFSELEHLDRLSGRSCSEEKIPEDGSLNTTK
Description: To test PTβR2I binding to cells, HDFs (Lonza) were seeded on type I collagen-coated cover glasses and inserted in a 6-well plate. After 24 hours, the following treatments were added into the wells: 1) PTβR2I solution (10 μg/mL) for 48 hours; 2) PTβR2I solution (10 μg/mL) for 24 hours, and then TGFβ1 (10 ng/ml) for another 24 hours; 3) TGFβ1 (10 ng/mL) for 24 hours, and then PTβR2I (10 μg/mL) for another 24 hours; and 4) both PTβR2I (10 μg/mL) and TGFβ1 (10 ng/ml) for 48 hours. Control wells contained HDF-seeded cover glasses without added PTβR2I or TGFβ1, and incubated for 48 hours. After the treatment, cells were fixed by 4% paraformaldehyde and blocked with 10% goat serum in Dulbecco's phosphate-buffered saline (DPBS). Primary antibody mouse anti-TβR2 (1:300, Santa Cruz) that was diluted in DPBS containing 3% BSA was incubated with the cells overnight at 4° C. The cells were washed three times with DPBS. A secondary antibody Alexa Fluro-647 (1:300, Fisher Scientific) was then applied for 2 h at room temperature, followed by incubating with DAPI (Millipore-Sigma) for five minutes.
To validate the above results, the fluorescence intensity of PTβR2I bound to the HDFs was measured for each treatment. Briefly, HDFs (Lonza) were seeded on type I collagen-coated 96-well black microplates. […] The fluorescence intensity was measured using the same microplate reader.

[1] = tested on: human keratinocyte HaCaT cells; assay: Cytotoxicity of PTβR2I on HaCaT cells; format: cell-based; parameters: dose or concentration left out as unconfirmed; settings: 1 to 100
HAECs [2] = assay: Cell proliferation (dsDNA) under high glucose and TGFβ1, HAEC; format: cell-based, human; settings: high glucose, TGFβ1 10 ng/ml, PTβR2I 10 μg/mL; p<0.05
Description: HDFs, HaCaTs, and HAECs were seeded in 96-well plates at respective densities of 1.5×10^4 cells/mL, 2×10^4 cells/mL, and 2×10^4 cells/mL. High glucose (4.5 g/L) basal medium with 1% P/S was used for the culture. After 24 hours, TGFβ1 (10 ng/ml) or TGFβ1 (10 ng/ml)/PTβR2I (10 μg/mL) was added to the medium. The culture continued for three days. The medium was then replaced by papain solution and incubated at 60° C. for 24 hours. The dsDNA content was tested using a Quant-iT™ PicoGreen dsDNA Assay Kit (Invitrogen).

HAECs [3] = assay: 2D scratch migration assay, HAEC; format: cell-based, human; settings: high glucose and TGFβ1, 36 hours
Description: HDFs, HaCaTs, and HAECs were cultured in 6-well plates using serum-free high glucose (4.5 g/L) basal medium with 1% P/S. After the cells reached confluency, a 200-μL pipet tip was used to scrape the cell monolayer. Then 3 mL of medium containing TGFβ1 (10 ng/ml) or TGFβ1 (10 ng/ml)/PTβR2I (10 μg/mL) was added to the wells. The cells were imaged at predetermined time points using a bright-field microscope. The distances between the scratch walls were measured using ImageJ to calculate the migration ratio

HAECs [4] = assay: Endothelial cell lumen formation in 3D collagen gel; format: cell-based, human; settings: high glucose and TGFβ1
Description: A 3D collagen gel model was used to evaluate endothelial cell lumen formation under high glucose and TGFβ1 conditions. Briefly, the collagen gel was formed by mixing 4 mg/ml of rat tail type I collagen solution (Life Technologies), FBS, DMEM, and NaOH. Then 500 μL of the mixture was transferred to a 48-well plate and placed in a 37° C. incubator for 30 minutes to allow gelation. HAECs were then seeded into the collagen gel at a density of 2×10^4 cells/well. TGFβ1 (10 ng/ml) or TGFβ1 (10 ng/ml)/PTβR2I (10 μg/mL) was then added. After three days of culturing, cells were stained with F-actin (Abcam, ab176753) and DAPI (Millipore-Sigma). The constructs were imaged by
Olympus FV1200 confocal microscopy with z-stack mode. The lumen density was calculated from the images.

HAECs [5] = assay: mRNA expression (RT-PCR), HAECs; format: cell-based, human; settings: high glucose and TGFβ1
Description: (§1) To determine the mRNA expression of the cells (HDFs, HaCaTs, and HAECs) treated with TGFβ1 (10 ng/ml) or TGFβ1 (10 ng/ml)/PTβR2I (10 μg/mL) under high glucose conditions, RNA was extracted using Trizol (Invitrogen) and reverse transcribed using a cDNA synthesis kit (Applied Biosystems). Gene expression was performed by real-time RT-PCR, using Maxima SYBR Green/Fluorescein Master Mix (Thermofisher) and selected primer pairs, shown in Table 1 below. β-actin served as the housekeeping gene. The ΔΔCt method was used for data analysis.

HDFs = assay: mRNA expression (RT-PCR), HDFs; format: cell-based, human; settings: high glucose and TGFβ1
Description: as §1

`CC(C)C[C@@H]1NC(=O)CNC(=O)[C@@H](NC(=O)[C@@H](N)CCC(=O)O)CSSC[C@@H](C(=O)N[C@@H](CCCCNC(=S)Nc2ccc3c(c2)C(=O)OC32c3ccc(O)cc3Oc3cc(O)ccc32)C(=O)O)NC(=O)[C@H](CC(C)C)NC(=O)[C@H](CCCNC(=N)N)NC(=O)[C@H](Cc2c[nH]c3ccccc23)NC(=O)[C@H](C(C)C)NC(=O)[C@H](CCCNC(=N)N)NC(=O)[C@H](CC(=O)O)NC(=O)[C@@H]2CCCN2C(=O)[C@H](CCCNC(=N)N)NC(=O)CNC(=O)[C@H](C(C)C)NC(=O)[C@@H]2CCCN2C(=O)[C@H](CC(C)C)NC1=O` [PTβR2I, ECGLLPVGRPDRVWRLCK-FITC] (H-ECGLLPVGRPDRVWRLCK(FITC)-OH; disulfide 2-17; N-terminus and C-terminus assumed) was tested, and the “fluorescent intensities of FITC-labeled PTβR2I whichever of PTβR2I or TGFβ1 bound first” value (TβR2 on HDFs) was “consistent”, the cell viability [1] was “no decrease in viability” and the “proliferation (dsDNA, day 3)” value (HAECs [2]) was “Significantly improved proliferation”. For the same compound, the migration (HAECs [3]) was “significantly higher number of cells had migrated”, the lumen density (HAECs [4]) was “significantly increased the lumen density” and the HGF gene expression (HAECs [5]) was “significantly enhanced”. For the same compound, the VEGFA gene expression (HAECs [5]) was “significantly enhanced”, the IGF1 expression (HDFs) was “significantly upregulated” and the “IL1B mRNA expression” value (HDFs) was “significantly reduced”. For the same compound, the “IL6 mRNA expression” value (HDFs) was “significantly reduced” and the “TNFA mRNA expression” value (HDFs) was “significantly reduced”.

— patent US20240181125A1, “COMPOSITIONS AND METHODS FOR SCARLESS WOUND HEALING IN DIABETES” (Washington University, priority 2022, published 2024)
